From PubChem BioAssay AID179 (DTP/NCI, 2004)
“And” between values parts separate entries of the source, which are not always exact repeats. Equal values may be shown once. The source made the active and inactive calls.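 Rule for the calls: active = compounds giving half or more protection of infected cells from virus-caused growth loss, again on retest; inactive = the rest.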

Test system: CEM cells HIV-1 protection, formazan growth assay
Experiment: NCI AIDS Antiviral Assay
Conditions: for IC50: measured here: growth of uninfected CEM cells
Procedure, shortened: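 Steps: treat uninfected and HIV-1-infected human CEM cells at five drug levels; quantify growth by soluble formazan; retest any compound reaching 50% protection; classify actives from the retest.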

| SMILES | outcome | EC50 | IC50 |
| --- | --- | --- | --- |
| CCOC(=O)C1CC=CC(NC(=O)OC(C)(C)C)C1(c1ccccc1)[N+](=O)[O-] (configuration not stated) | inactive | – | – |
| O=Nc1ccc2ccccc2c1O | – | > 200 µM | 4.27 µM |
| CCN1C(=O)/C(=C\c2coc3ccccc3c2=O)SC1=S | – | > 0.813 µM | > 0.813 µM |
| CCOP(=O)(OCC)C1CCCOC1=O (configuration not stated) | inactive | – | – |
| CNC(=O)OCn1cnc(Cl)c1Cl | – | > 200 µM | > 200 µM |
| CC1=C(C)C(=O)c2c(cc3c4ccccc4ccn23)C1=O | inactive | – | – |
| NC(=O)NN=C1CCC(CC2CCCCC2)CC1 (configuration not stated) | – | > 200 µM | 174 µM |
| N#C/C(=C\c1ccc(O)c(O)c1)C(=O)NCCCCCNC(=O)/C(C#N)=C/c1ccc(O)c(O)c1 | – | > 200 µM | 11.5 µM |
| CCN(CC)CCCNc1nnc2c(=O)n(C)c(=O)n(C)c2n1 | – | > 200 µM | > 200 µM |
| O=C(c1ccccc1)n1cc(-c2ccccc2)c2c(=O)[nH]cnc21 | – | > 200 µM | > 100 µM |
| COc1ccc(/C=C/C(=O)c2cc(Cl)cc(Cl)c2O)cc1OC | – | > 200 µM | 1.05 µM |
| CC(C)=CCNc1ncnc2c1ncn2C1OC(CO)C(O)C1O (configuration not stated) | – | > 200 µM | 15.5 µM |
| Cc1c(C2=NN=C(N=Nc3c(O)cccc3O)/C2=C/c2ccccc2)c(=O)n(-c2ccccc2)n1C | inactive | – | – |
| O=C(O)Cc1cccc2c1Oc1ccccc1S2 | – | > 5620 µM | 204 µM |
| CC(C)=CCc1c(O)cc(O)c2c1O[C@H](c1cc3c(cc1O)O[C@@H](c1ccc(O)cc1)C3c1cc(O)cc(O)c1)CC2=O (some centres not stated) | – | > 77.6 µM | 36.3 µM |
| COc1ccc(C2=C(Cl)c3cc(OC)c(OC)cc3C2Cl)cc1 (configuration not stated) | inactive | – | – |
| COC(=O)CC12CC(CC(=O)O1)N(C(=O)Nc1ccccc1)O2 (configuration not stated) | – | > 77.6 µM | > 77.6 µM |
| O=C1Sc2ccccc2Cn2cccc21 | – | 186 µM | > 200 µM |
| CC(C)N(C(C)C)P1O[PH+](N(C(C)C)C(C)C)OP(N(C(C)C)C(C)C)O[PH+](N(C(C)C)C(C)C)O1.[C-]#[O+].[C-]#[O+].[C-]#[O+].[C-]#[O+].[W] (configuration not stated) | – | > 200 µM | > 200 µM |
| C#CCOC(=O)C=[N+]=[N-] | – | > 200 µM | > 200 µM |
| O=C(Sc1c(-c2ccccc2)c(=O)n(-c2ccccc2)c(=S)n1-c1ccccc1)c1ccccc1 | – | > 200 µM | 8.51 µM |
| C=C[C+](CCCC)C(=O)[O-] | – | 589 µM | 631 µM |

| SMILES | outcome | EC50 | IC50 |
| --- | --- | --- | --- |
| C=CCOC1=C2CC[C@H](O)[C@@]2(C)CCC1=O | inactive | – | – |
| C[N+](C)(C)CC(=O)N/N=C(/Cc1cc(=O)oc2cc(O)ccc12)C(=O)Nc1ccc(Cl)cc1 | – | > 51.3 µM | > 51.3 µM |
| CCCCc1ccc(Nc2nc(Cl)c3[nH]cnc3n2)cc1 | – | > 200 µM | 26.3 µM |
| Cc1ccc2c3c(cnc2n1)C(=O)OCCN3C | – | > 200 µM | > 200 µM |
| CCCCCCCC/C=C\CCCCCCCC(=O)N(C)N(C)C(=O)CCCCCCC/C=C/CCCCCCCC | – | > 200 µM | > 200 µM |
| C=C1CN(S(=O)(=O)c2ccc(C)cc2)CCCN(Cc2ccc[nH]2)CCCN(S(=O)(=O)c2ccc(C)cc2)C1 | – | > 200 µM | 14.5 µM |
| CCOP1(=O)C=C(Sc2ccc([N+](=O)[O-])cc2[N+](=O)[O-])C(C)(C)O1 (configuration not stated) | – | > 200 µM | 110 µM |
| O=C(O)/C=C/c1c2ccc(=O)c(O)c-2oc2c(O)c(O)ccc12 | – | 6.03 µM and 24 µM | 151 µM and 162 µM |
| c1ccc(-c2nc3cc4c(cc3n3cccc23)oc2ccccc24)cc1 | – | > 100 µM | 85.1 µM |
| CCOC(=O)Nc1nc2c([N+](=O)[O-])c(Br)n(C)c2s1 | inactive | – | – |
| CC1(C)OC(=O)C(C#N)=C1/C=C/c1coc2ccc(Cl)cc2c1=O | – | > 29.5 µM | > 29.5 µM |
| CN1c2ccccc2C(=O)N2C(=O)CCC21C (configuration not stated) | – | > 200 µM | > 200 µM |
| CCCCNc1nc(N)nc(Nc2ccc(Br)cc2)c1N=O | – | > 55 µM | 23.4 µM |
| Cc1ccc2c(c1)CSCCO2 | – | > 105 µM | 14.8 µM |
| COc1ccc2c(c1)N(S(=O)(=O)c1ccc(C)cc1)C[C@@H]1c3cc(O)c(OCc4ccccc4)cc3O[C@H]21 | inactive | – | – |
| COc1cc(/C=C2/SC(c3ccccc3)N(Cc3ccccc3)C2=O)cc(OC)c1OC (configuration not stated) | – | > 200 µM | 25.7 µM |
| CC[N+]1(C)CCC(O)(/C=C/c2ccc(OC)cc2)C(C(=O)/C=C/c2ccc(OC)cc2)C1 (configuration not stated) | – | > 200 µM | 1.12 µM |
| CCOC(=O)c1nc2ccc(Cl)cc2c2c1CCO2 | – | > 5.25 µM | > 5.25 µM |
| O=C1Cc2ccccc2N1/N=C\c1ccc(O)cc1 | – | > 372 µM | 39.8 µM |
| c1ccc(CN(Cc2ccccn2)Cn2cccn2)nc1 | inactive | – | – |
| C1=Cc2nc1c(-c1ccccc1)c1ccc([nH]1)c(-c1ccccc1)c1nc(c(-c3ccccc3)c3ccc([nH]3)c2-c2ccccc2)C=C1 | – | > 2.34 µM | > 2.34 µM |
| N#Cc1cc([N+](=O)[O-])ccc1NC(=O)C(=O)C(C(=O)c1ccc2ccccc2c1)C1OCc2ccccc21 (configuration not stated) | – | > 70.8 µM | 37.2 µM |

| SMILES | outcome | EC50 | IC50 |
| --- | --- | --- | --- |
| COC1(OC)C(N(C)C)=C(Cl)C(=O)/C1=C/C=O | – | > 251 µM | 72.4 µM |
| CCN(CC)c1c(-c2c(OC(C)C)c(=O)c2=O)c(=O)n2ccsc2c1OC(C)=O | – | > 200 µM | 141 µM |
| O=[N+]([O-])c1c(Cl)ccc2nsnc12 | – | > 316 µM | 2.04 µM |
| Cc1ccc(C2SCC(=O)N2c2ccc(-n3c(-c4ccccc4)nc4ccccc4c3=O)cc2)cc1 (configuration not stated) | – | > 200 µM | 10.7 µM |
| C#CCCCCCCCCC/C=C1\C[C@H](O)COC1=O | – | > 245 µM | 46.8 µM |
| N#CNC(=NCc1ccccc1)NCCc1c[nH]c2ccccc12 | – | 145 µM | 162 µM |
| COc1cc([N+](=O)[O-])c(OC)c2c(Nc3ccc(S(=O)(=O)O)c4cc(S(=O)(=O)O)cc(S(=O)(=O)O)c34)cc(C)nc12 | – | > 200 µM | > 200 µM |
| CC(=O)NCC1(c2ccccc2)CCN(CC2COc3ccccc3O2)CC1 (configuration not stated) | – | > 200 µM | > 200 µM |
| O=C(CCc1nnc2s/c(=C\c3ccccc3[N+](=O)[O-])c(=O)n12)Nc1cc(Cl)c(Cl)cc1Cl | – | > 2 µM | > 2 µM |
| Cc1cccc(C)c1Nc1nc(C)c(C(=O)CC(=O)C(=O)Nc2c(C(C)C)cccc2C(C)C)s1 | – | > 200 µM | > 200 µM |
| O=C(CC(=O)Nc1ccc(C(=O)O)cc1)Nc1ccc(C(=O)O)cc1 | – | > 200 µM | > 200 µM |
| C[Si](C)(OCCS(=O)(=O)O)C1S(=O)(=O)OCCOS1(=O)=O | – | > 200 µM | 60.3 µM |
| COC(=O)[C@]1(C)CCC[C@]2(C)C3CC4OOC3(C=C4C(C)(C)O)CCC21 (some centres not stated) | – | > 251 µM | 38.9 µM |
| Cc1cc2c(=O)cc(-c3ccccc3Cl)oc2c(C(=O)O)c1C | – | > 200 µM | > 200 µM |
| O=C1c2ccccc2C(=O)C1(Cl)C1(S(=O)(=O)O)c2ccccc2-c2ccccc21 | inactive | – | – |
| COc1c(C)c(O)c2c(=O)cc(-c3ccccc3)oc2c1C | – | > 63.1 µM | > 63.1 µM |
| Cc1nccc2c(C)c3sc4ccccc4c3cc12 | – | > 91.2 µM | 2.14 µM |
| O=C(/C=C/c1ccccc1O)c1ccccc1O | – | > 209 µM | > 209 µM |
| CN(C)c1ccc(/C=N/NS(=O)(=O)c2ccc(N)cc2)cc1 | – | > 214 µM | > 214 µM |
| N#Cc1ccc(S(=O)(=O)c2ccc(C#N)cc2)cc1 | – | > 200 µM | > 200 µM |
| CCC[CH2][Sn]1([CH2]CCC)[N](S(=O)(=O)c2ccc(C)cc2)c2ccccc2[N]1S(=O)(=O)c1ccc(C)cc1 | – | > 2 µM | 0.309 µM |
| C[C@]1(O)CC(=O)c2c(c(-c3ccc4cc5c(c(O)c4c3O)C(=O)C[C@@](C)(O)C5)c3cccc(O)c3c2O)C1 | – | > 200 µM | 1.32 µM |

| SMILES | outcome | EC50 | IC50 |
| --- | --- | --- | --- |
| COc1ccc(N=N/C(=N/NC(=O)c2ccccc2)c2ccc(N(CCC#N)CCC#N)cc2C)cc1 | – | > 200 µM | 11.5 µM |
| CN(C)CC1CCC/C1=N\O (configuration not stated) | – | > 1580 µM | 1380 µM |
| S=c1nc(Oc2ccc(Cl)c(Cl)c2)[nH]c(=S)[nH]1 | – | > 23.4 µM | > 23.4 µM |
| Cc1ccc(NC(=O)c2cc3c(cc2Cl)Sc2nccn2S3(=O)=O)cc1 | – | > 200 µM | 61.7 µM |
| CC(=O)C1=C(O)CC2CC3c4[nH]c5ccccc5c4CCN3CC2C1 (configuration not stated) | – | > 204 µM | 102 µM |
| CC1=NNC(N)=N/C1=C\C(Sc1ccc(Cl)cc1)c1ccc(Cl)cc1Cl (configuration not stated) | – | > 112 µM | 18.6 µM |
| N#CC(=Nc1ccccc1N(C(=O)c1ccccc1)C(=O)c1ccccc1)c1ccccc1 | – | > 17 µM | > 17 µM |
| CN(C)c1ccc(/C=c2\sc3nnc(-c4ccco4)n3c2=O)cc1 | – | > 11.2 µM | > 11.2 µM |
| COc1ccc(-c2nc(N)n(C)c2SSc2c(-c3ccc(OC)cc3)nc(N)n2C)cc1 | – | > 45.7 µM | 3.98 µM |
| O=C1c2cccc([N+](=O)[O-])c2C(=O)N1CC[P+](c1ccccc1)(c1ccccc1)c1ccccc1 | – | > 200 µM | > 200 µM |
| N#CC(=N)c1ncn(-c2ccc(N)cc2)c1N | – | > 200 µM | 195 µM |
| Cc1ccc(C(=O)CC(O)(C(F)(F)F)C(F)(F)F)cc1[N+](=O)[O-] | – | > 200 µM | 6.61 µM |
| Cc1[nH]c(=O)n2c(C)nnc2c1C(=O)Nc1cc(Cl)cc(Cl)c1 | inactive | – | – |
| CCCCN=c1ssc(=O)n1CCCC | – | > 200 µM | 26.3 µM |
| Cc1ccc(/C=C2\CCC/C(=C\c3ccc(O)c(CN4CCCCC4)c3)C2=O)cc1 | – | > 100 µM | – |
| C=CCCCC12CCCc3cccc(c31)NC2=S (configuration not stated) | – | > 200 µM | 14.1 µM |
| Cc1ccc(Nc2[nH]c(=O)[nH]c(=O)c2N=O)cc1 | – | > 200 µM | > 200 µM |
| CCOc1ccc(NC(=O)C2=C(C)NC(C)=C(C(=O)Nc3ccc(OCC)cc3)C2c2ccc(O)c(OC)c2)cc1 | – | > 17 µM | > 17 µM |
| CCC(CCCCC1CC[C@H]2CC(=O)C[C@@H]12)OC (some centres not stated) | – | > 200 µM | 107 µM |
| Cc1ccc(-c2cc(-c3ccco3)c(C#N)c(=O)n2C2OC(CO)C(O)C(O)C2O)cc1 (configuration not stated) | – | 25.7 µM | 81.3 µM |
| COc1ccc(CCNC(=S)N/C=C(\C#N)S(=O)(=O)c2ccc(C)cc2)cc1OC | – | > 200 µM | > 200 µM |
